Laboratory results published in PMC5132016 (Clinical Pharmacology in Drug Development, 2016).

How the values were obtained:
[1] = Single-dose pharmacokinetics of EE and LN; type: in vivo, human; conditions: for Tmax: single oral Microgynon 30 alone, median (range), n = 19
[2] = tofacitinib 30 mg twice daily; cited from earlier work
[3] = cited from earlier work
[4] = female, human, plasma, oral, adjusted geometric mean, Reference (Microgynon 30 alone)
[5] = tofacitinib 30 mg twice daily vs Microgynon 30 alone
[6] = Microgynon 30 + tofacitinib / Microgynon 30 alone

Structure (SMILES): C#C[C@]1(O)CC[C@H]2[C@@H]3CCc4cc(O)ccc4[C@H]3CC[C@@]21C [Ethinylestradiol, ethinylestradiol]
- AUC(0-inf) [1, 4]: 0.716 ng·h/mL
- Tmax [1]: 1.5 (1.0–2.1) h
- Decrease of maximal plasma concentration when coadministered with tofacitinib [1, 5]: 10.4%
- Increase of AUC∞ in the presence of tofacitinib [1, 5]: 6.6%

Structure (SMILES): Cc1ncc2n1-c1ccc(Cl)cc1C(c1ccccc1F)=NC2 [midazolam]
- Change in Cmax when coadministered with tofacitinib [2]: no change
- Change in total exposure (AUC∞) when coadministered with tofacitinib [2]: no change

Structure (SMILES): C[C@@H]1CCN(C(=O)CC#N)C[C@@H]1N(C)c1ncnc2[nH]ccc12 [Tofacitinib]
- Effect on the pharmacokinetics of EE and LN ([1]; tofacitinib 30 mg twice daily for 11 days, healthy women): no clinically relevant net inhibitory or inductive effect
- Nonrenal share of clearance [3]: 70%
- Renally excreted share of clearance [3]: 30%
- Share of metabolism by CYP3A4 [3]: approximately 55%

Structure (SMILES): C#C[C@]1(O)CC[C@H]2[C@@H]3CCC4=CC(=O)CC[C@@H]4[C@H]3CC[C@@]21CC [Levonorgestrel, levonorgestrel]
- Ratio (Test/Reference) of adjusted geometric means, AUClast [1, 6]: 104.60%
- Ratio (Test/Reference) of adjusted geometric means, AUC∞ [1, 6]: 100.87%
- Ratio (Test/Reference) of adjusted geometric means, Cmax [1, 6]: 112.19%
- AUC(0-t) ([1]; female, human, plasma, oral, AUClast, adjusted geometric mean, Reference (Microgynon 30 alone)): 35 ng·h/mL
- AUC(0-inf) [1, 4]: 44.6 ng·h/mL
- Cmax ([1]; female, human, plasma, oral, Cmax, adjusted geometric mean, Reference (Microgynon 30 alone)): 3.78 ng/mL
- Tmax [1]: 1.0 (1.0–2.0) h
- Increase of AUC∞ in the presence of tofacitinib [1, 5]: 0.9%
- Increase of maximal plasma concentration when coadministered with tofacitinib [1, 5]: 12.2%
